From US11578084B2, “Condensed ring compounds having dopamine D3 receptor antagonistic effect” (Shionogi & Co., Ltd., priority 2018, dated 2023)

Assays:
[1] = target: hERG channel (IKr) (Homo sapiens (Human), UniProt Q12809); experiment: hERG test (whole cell patch clamp, IKr); format: cell-based; conditions: human, CHO cells expressing hERG channel, pH 7.4, 3 μM, tail peak current
Source text: Test Example 10: hERG Test
For the purpose of assessing risk of an electrocardiogram QT interval prolongation of the compound of the present invention, effects of the compound of the present invention on delayed rectifier K+ current (IKr), which plays an important role in the ventricular repolarization process, was studied using CHO cells expressing human ether-a-go-go related gene (hERG) channel.
After a cell was retained at a membrane potential of −80 mV by whole cell patch clamp method using an automated patch clamp system (QPatch; Sophion Bioscience A/S) and gave a leak potential of −50 mV, IKr induced by depolarization pulse stimulation at +20 mV for 2 seconds and, further, repolarization pulse stimulation at −50 mV for 2 seconds, was recorded. After the generated current was stabilized, extracellular solution (NaCl: 145 mmol/L, KCl: 4 mmol/L, CaCl2): 2 mmol/L, MgCl2: 1 mmol/L, glucose: 10 mmol/L, HEPES (4-(2-hydroxyethyl)-1-piperazineethanesulfonic acid): 10 mmol/L, pH=7.4), in which the compound of the present invention had been dissolved at an objective concentration in the extracellular solution, was applied to the cell at room temperature for 7 minutes or more. From the recording IKr, an absolute value of the tail peak current was measured based on the current value at the resting membrane potential using analysis software (QPatch Assay software; Sophion Bioscience A/S). Further, the % inhibition of tail peak current for the compound of the present invention relative to the tail peak current after application of the solution (0.1% dimethyl sulfoxide solution) was calculated to assess influence of the compound of the present invention on IKr.

[2] = target: human recombinant dopamine D3 receptor (Homo sapiens (Human), UniProt P35462); experiment: Test of binding inhibition for dopamine D3 receptor ([3H]-Methylspiperone SPA); conditions: Jump-In HEK cell membranes, 2 nM [3H]-Methylspiperone, 120 min at 25° C.; read-out: hD3_Ki
Procedure, shortened: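 SPA radioligand binding on Jump-In HEK membranes expressing human D3 receptor (4 µg/well) with 2 nM [3H]-methylspiperone (final), incubated 120 min at 25 °C. Non-specific binding defined with 10 µM butaclamol. Percent inhibition computed against total and non-specific binding; Ki from dose-response curves.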

[3] = target: human recombinant dopamine D2 receptor (Homo sapiens (Human), UniProt P14416); experiment: Test of binding inhibition for dopamine D2 receptor ([3H]-Methylspiperone SPA); conditions: Jump-In HEK cell membranes, 1.2 nM [3H]-Methylspiperone, 120 min at 25° C.; read-out: hD2_Ki
Procedure, shortened: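 Scintillation proximity competition binding of [3H]-Methylspiperone to Jump-In HEK membranes expressing human D2 (2 μg protein/well) on WGA SPA beads (0.2 mg/well), 120 min at 25° C.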

Sequence of human recombinant dopamine D2 receptor (P14416 whole entry): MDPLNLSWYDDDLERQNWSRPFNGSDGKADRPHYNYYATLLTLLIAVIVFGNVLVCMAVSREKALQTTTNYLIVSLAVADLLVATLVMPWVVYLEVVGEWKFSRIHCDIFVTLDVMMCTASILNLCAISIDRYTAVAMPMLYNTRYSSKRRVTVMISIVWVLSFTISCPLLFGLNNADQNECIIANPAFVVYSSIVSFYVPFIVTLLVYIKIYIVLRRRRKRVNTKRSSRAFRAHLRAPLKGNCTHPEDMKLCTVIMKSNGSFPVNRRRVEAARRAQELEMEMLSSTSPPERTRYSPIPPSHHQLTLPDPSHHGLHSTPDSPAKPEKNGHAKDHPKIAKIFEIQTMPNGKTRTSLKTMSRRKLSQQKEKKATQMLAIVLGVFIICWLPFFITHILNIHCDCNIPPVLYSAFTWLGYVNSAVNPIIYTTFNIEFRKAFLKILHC
Sequence of human recombinant dopamine D3 receptor (P35462 whole entry): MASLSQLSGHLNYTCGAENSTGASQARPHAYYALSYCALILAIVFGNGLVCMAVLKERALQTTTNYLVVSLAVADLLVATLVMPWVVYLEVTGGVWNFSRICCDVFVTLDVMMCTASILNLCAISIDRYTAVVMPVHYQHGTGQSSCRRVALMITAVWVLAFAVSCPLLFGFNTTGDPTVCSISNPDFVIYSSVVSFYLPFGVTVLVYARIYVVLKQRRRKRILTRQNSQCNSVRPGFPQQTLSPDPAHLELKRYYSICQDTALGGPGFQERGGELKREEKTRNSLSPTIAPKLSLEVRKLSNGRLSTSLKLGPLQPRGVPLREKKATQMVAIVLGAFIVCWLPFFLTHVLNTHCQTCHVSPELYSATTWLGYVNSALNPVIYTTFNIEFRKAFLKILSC
Sequence of hERG channel (IKr) (Q12809 whole entry): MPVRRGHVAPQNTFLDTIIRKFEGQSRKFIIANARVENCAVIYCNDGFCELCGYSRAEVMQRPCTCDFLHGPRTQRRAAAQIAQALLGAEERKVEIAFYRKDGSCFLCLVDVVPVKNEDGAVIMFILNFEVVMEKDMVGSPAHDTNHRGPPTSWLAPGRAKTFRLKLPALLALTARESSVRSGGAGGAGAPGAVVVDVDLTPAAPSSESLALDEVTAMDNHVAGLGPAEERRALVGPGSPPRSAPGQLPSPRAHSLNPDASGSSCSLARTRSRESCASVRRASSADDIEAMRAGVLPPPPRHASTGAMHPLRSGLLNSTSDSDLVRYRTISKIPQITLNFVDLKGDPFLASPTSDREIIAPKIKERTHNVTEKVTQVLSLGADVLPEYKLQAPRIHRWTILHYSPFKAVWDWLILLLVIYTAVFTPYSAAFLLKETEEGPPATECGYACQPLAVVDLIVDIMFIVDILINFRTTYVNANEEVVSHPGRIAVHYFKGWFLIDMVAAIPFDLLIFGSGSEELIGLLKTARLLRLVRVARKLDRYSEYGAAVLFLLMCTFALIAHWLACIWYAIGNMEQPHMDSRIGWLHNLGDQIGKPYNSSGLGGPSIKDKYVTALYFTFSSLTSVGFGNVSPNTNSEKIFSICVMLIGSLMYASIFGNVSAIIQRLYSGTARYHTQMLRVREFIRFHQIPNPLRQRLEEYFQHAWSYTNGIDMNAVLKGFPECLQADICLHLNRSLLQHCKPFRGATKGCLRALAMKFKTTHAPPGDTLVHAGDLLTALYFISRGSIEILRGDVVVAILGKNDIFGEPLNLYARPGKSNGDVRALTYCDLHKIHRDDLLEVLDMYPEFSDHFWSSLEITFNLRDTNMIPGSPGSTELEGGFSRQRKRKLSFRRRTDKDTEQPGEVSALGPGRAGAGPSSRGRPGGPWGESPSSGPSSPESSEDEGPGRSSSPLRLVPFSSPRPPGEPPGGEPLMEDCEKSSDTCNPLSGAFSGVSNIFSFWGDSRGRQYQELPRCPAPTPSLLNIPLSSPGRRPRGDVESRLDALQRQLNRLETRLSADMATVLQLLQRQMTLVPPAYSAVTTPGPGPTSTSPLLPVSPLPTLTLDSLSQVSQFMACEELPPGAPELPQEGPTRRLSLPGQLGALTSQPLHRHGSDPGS

Row | Compound | inhibition at 3 µM [1] | Ki [2] | Ki [3]
1 | Cn1ncc(CC(=O)N[C@H]2CC[C@H](CCN3CCc4nc(OC5CC(F)(F)C5)sc4CC3)CC2)n1 [Example I-023] | 16.5% | 0.11 nM | > 2200 nM
2 | Cc1nc(CC(=O)N[C@H]2CC[C@](F)(CCN3CCc4ccc(OCC(F)F)nc4CC3)CC2)no1 [Example I-024] | 18.7% | 0.2 nM | > 2200 nM
3 | Cc1nnc(CC(=O)N[C@H]2CC[C@](F)(CCN3CCc4ccc(OCC(F)F)nc4CC3)CC2)o1 [Example I-025] | 14.9% | 0.46 nM | 820 nM
4 | Cc1ncc(CC(=O)N[C@H]2CC[C@](F)(CCN3CCc4ccc(OCC(F)F)nc4CC3)CC2)o1 [Example I-026] | 20.1% | 0.095 nM | 1100 nM
5 | Cn1cc(CC(=O)N[C@H]2CC[C@](F)(CCN3CCc4ccc(OCC(F)F)nc4CC3)CC2)cn1 [Example I-027] | 14.3% | 0.23 nM | 1000 nM
6 | Cn1cc2c(C(=O)NN3CCC(F)(CCN4CCc5sc(OCC(F)(F)F)nc5C4)CC3)cccc2n1 [Example I-028] | 9.09% | 0.41 nM | 640 nM
7 | Cn1c(C(=O)N[C@H]2CC[C@](F)(CCN3CCc4ccc(OCC(F)F)nc4CC3)CC2)cccc1=O [Example I-029] | 8.37% | 0.36 nM | 610 nM
8 | Cc1ncc(OCC(=O)N[C@H]2CC[C@](F)(CCN3CCc4ccc(OCC(F)F)nc4CC3)CC2)cn1 [Example I-030] | 26.1% | 0.3 nM | 610 nM
9 | Cn1cc(CC(=O)N[C@H]2CC[C@H](CCN3CCc4ccc(OC5CCC5)nc4CC3)CC2)cn1 [Example I-032] | 31.9% | 0.48 nM | > 2200 nM
10 | Cc1ncc(CC(=O)N[C@H]2CC[C@H](CCN3CCc4ccc(OC5CCC5)nc4CC3)CC2)o1 [Example I-033] | 12.2% | 0.78 nM | > 2200 nM
11 | Cc1ncccc1C(=O)N[C@H]1CC[C@H](CCN2CCc3nc(OCC(C)(F)F)sc3CC2)CC1 [Example I-034] | 34.3% | 0.36 nM | 560 nM
12 | Cn1cc2c(C(=O)N[C@H]3CC[C@H](CCN4CCc5sc([C@H]6C[C@@H](F)C6)nc5C4)CC3)cccc2n1 [Example I-035] | 16% | 0.18 nM | 210 nM
13 | Cc1cnc(CC(=O)N[C@H]2CC[C@H](CCN3CCc4nc(OCC(C)(F)F)sc4CC3)CC2)o1 [Example I-036] | 29.8% | 0.54 nM | 910 nM
14 | Cc1ncc(/C=C/C(=O)N[C@H]2CC[C@H](CCN3CCc4nc(OCC(C)(F)F)sc4CC3)CC2)cn1 [Example I-037] | 28% | 0.097 nM | 240 nM
15 | Cc1cnc(CC(=O)N[C@H]2CC[C@](F)(CCN3CCc4nc(OCC(F)F)sc4CC3)CC2)o1 [Example I-038] | 21.4% | 0.81 nM | > 1700 nM
16 | Cc1nc(CC(=O)N[C@H]2CC[C@](F)(CCN3CCc4nc(OCC(F)F)sc4CC3)CC2)no1 [Example I-039] | 22.3% | 1 nM | 1200 nM
17 | Cc1nnc(CC(=O)N[C@H]2CC[C@](F)(CCN3CCc4nc(OCC(F)F)sc4CC3)CC2)s1 [Example I-040] | 23.2% | 0.46 nM | 890 nM
18 | Cc1cnc(CC(=O)N[C@H]2CC[C@H](CCN3CCc4sc(C5CC(F)(F)C5)nc4C3)CC2)o1 [Example I-041] | 18.1% | 0.17 nM | 620 nM

Row | Compound | inhibition at 3 µM [1] | Ki [2] | Ki [3]
19 | Cc1ncccc1C(=O)N[C@H]1CC[C@](F)(CCN2CCc3nc(OCC(C)(F)F)sc3CC2)CC1 [Example I-042] | 10.8% | 0.57 nM | 1000 nM
20 | Cc1ncc(CC(=O)N[C@H]2CC[C@](F)(CCN3CCc4nc(OCC(C)(F)F)sc4CC3)CC2)o1 [Example I-043] | 20.7% | 0.12 nM | 970 nM
21 | Cc1ncc(OCC(=O)N[C@H]2CC[C@](F)(CCN3CCc4nc(OCC(C)(F)F)sc4CC3)CC2)cn1 [Example I-044] | 23.7% | 0.14 nM | 610 nM
22 | Cc1cnc(OCC(=O)N[C@H]2CC[C@H](CCN3CCc4sc(OCC(C)(F)F)nc4C3)CC2)cn1 [Example I-046] | 14.3% | 0.34 nM | 500 nM
23 | O=C(N[C@H]1CC[C@H](CCN2CCc3nc(OCC(F)(F)F)sc3CC2)CC1)c1cccnc1C(F)F [Example I-048] | 3.52% | 0.048 nM | 390 nM
24 | Cn1c(C(=O)N[C@H]2CC[C@H](CCN3CCc4nc(OCC(C)(F)F)sc4CC3)CC2)cccc1=O [Example I-056] | 10.7% | 0.24 nM | 490 nM
25 | Cn1cc(CC(=O)N[C@H]2CC[C@](F)(CCN3CCc4nc(OCC(F)F)sc4CC3)CC2)cn1 [Example I-059] | 6.72% | 0.69 nM | > 1700 nM
26 | Cc1ncc(CC(=O)N[C@H]2CC[C@](F)(CCN3CCc4nc(OCC(F)F)sc4CC3)CC2)o1 [Example I-060] | 17.7% | 0.59 nM | 1400 nM
27 | Cn1cc2ccc(C(=O)N[C@H]3CC[C@H](CCN4CCc5nc(OCC(C)(F)F)sc5CC4)OC3)cc2n1 [Example I-066] | 14.3% | 0.37 nM | 770 nM
28 | Cc1ncc(OCC(=O)N[C@H]2CC[C@H](CCN3CCc4sc(C5CC(F)(F)C5)nc4C3)CC2)cn1 [Example I-069] | 34.2% | 0.49 nM | 670 nM
29 | Cc1nnc(CC(=O)N[C@H]2CC[C@H](CCN3CCc4sc(C5CC(F)(F)C5)nc4C3)CC2)s1 [Example I-071] | 16.6% | 0.16 nM | 450 nM
30 | Cc1nnc(CC(=O)N[C@H]2CC[C@](F)(CCN3CCc4nc(OCC(C)(F)F)sc4CC3)CC2)s1 [Example I-073] | 25.9% | 0.29 nM | 450 nM
31 | Cn1cc(/C=C/C(=O)N[C@H]2CC[C@](F)(CCN3CCc4nc(OCC(C)(F)F)sc4CC3)CC2)cn1 [Example I-074] | 31% | 0.025 nM | 63 nM
32 | Cn1cc(OCC(=O)N[C@H]2CC[C@](F)(CCN3CCc4nc(OCC(C)(F)F)sc4CC3)CC2)cn1 [Example I-075] | 33.8% | 0.22 nM | 240 nM
33 | CC[C@@H](C)Oc1ccc2c(n1)CCN(CC[C@H]1CC[C@H](NC(=O)c3cccc4nn(C)cc34)CC1)CC2 [Example I-076] | 13.4% | 0.1 nM | > 1900 nM
34 | Cn1cc2c(C(=O)NN3CCC(CCN4CCc5sc(OCC(C)(F)F)nc5C4)CC3)cccc2n1 [Example I-077] | 4.33% | 0.38 nM | > 1800 nM
35 | Cn1c(C(=O)NN2CCC(CCN3CCc4sc(OCC(F)(F)F)nc4C3)CC2)cccc1=O [Example I-080] | 5.68% | 0.81 nM | 2100 nM
